Holding throughout (assay): NCI anticancer screen, dose series, 48 h
Test [1] relates to CAKI-1.
Test [2] has as its system CCRF-CEM.
Test [3] relates to EKVX.
The subject of test [4] is HCC 2998.
The test system of test [5] is IGROV-1.
Test [6] has as its system KM12.
The subject of test [7] is NCI-H226.
The subject of test [8] is NCI-H23.
Test [9] concerns NCI-H522.
Test [10] deals with OVCAR-5.
Test [11] concerns RXF 393.
In test [12] the test system is SF-295.
Test [13] deals with SF-539.
Test [14] has as its system SK-MEL-5.
The test system of test [15] is SN12C.
In test [16] the test system is SNB-19.
Test [17] relates to SR.
Test [18] relates to SW-620.
In test [19] the test system is T47D.
The test system of test [20] is UO-31.

We go through 9 compounds from ChEMBL document CHEMBL1201862, “PubChem BioAssay data set” (2004).

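Growth conditions: 96-well plates. Treatment: test compound, 48 hours, 5 concentrations. Analysis: linear interpolation between bracketing concentrations; unreached endpoints set to highest concentration. Abbreviation: GI50, concentration required for 50% inhibition of growth.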 Active and inactive are the calls of the source. No stated cut-off is given here; in the data, active = GI50 up to about 1.1 µM and inactive = higher. Some results are limits rather than exact numbers.

For `N#Cc1nc(C#N)n(S(=O)(=O)c2ccccc2)c1NS(=O)(=O)c1ccccc1`, the GI50 in test [1] was > 37.8 µM (inactive); in test [2], > 100 µM (inactive); in test [3] it was > 53.2 µM (inactive); in [4], > 100 µM (inactive); in test [5], > 100 µM (inactive); in test [6] it was > 100 µM (inactive). Besides, the GI50 in [7], in test [8], in [9], in test [10], in test [11] and in test [12] was > 100 µM (inactive) throughout. Moreover, the GI50 in test [13] is > 100 µM (inactive); in test [14], > 100 µM (inactive); in [15], > 100 µM (inactive); in test [16], > 100 µM (inactive); in [17] it was > 38.1 µM (inactive); in test [18] it was > 100 µM (inactive). Besides, the GI50 in test [19] is > 100 µM (inactive); in test [20], 27 µM (inactive).

As for `Cc1cccc(/C=N/NC(=S)NC2CCCCC2)n1`, the GI50 is 43.3 µM (inactive) in test [1]; 1.14 µM (inactive) in test [2]; 22.4 µM (inactive) in [3]; 20.7 µM (inactive) in test [4]; 21.3 µM (inactive) in test [5]; 31.1 µM (inactive) in [6]. In addition, the GI50 in test [7] is 15.7 µM (inactive); in test [8], 32.4 µM (inactive); in test [9], 7.96 µM (inactive); in test [10] it was 15.2 µM (inactive); in test [11] it was 18.5 µM (inactive); in [12], 29 µM (inactive). For the same compound, the GI50 in [13] was 27.7 µM (inactive); in test [14], 29.9 µM (inactive); in [15], 27.4 µM (inactive); in test [16] it was 34.8 µM (inactive); in test [17] it was 4.76 µM (inactive); in test [18] it was 9.25 µM (inactive). For the same compound, the GI50 in [19] was 2.58 µM (inactive); in [20], 18.7 µM (inactive).

`CC1=C(C)CC2C(=O)N(c3cc(C(C)(C)C)ccc3C(C)(C)C)C(=O)C2C1` (stereo not given): the GI50 in [1] is > 100 µM (inactive); in test [2], > 100 µM (inactive); in [3], > 100 µM (inactive); in [4], 52.6 µM (inactive); in test [5], 61 µM (inactive); in test [6], > 100 µM (inactive). Further, the GI50 was > 100 µM (inactive) in test [7]; 94.4 µM (inactive) in [8]; 8.2 µM (inactive) in [9]; > 100 µM (inactive) in test [10]; 23.8 µM (inactive) in [11]; 48.2 µM (inactive) in test [12]. Moreover, the GI50 was 78.3 µM (inactive) in test [13]; > 100 µM (inactive) in test [14]; > 100 µM (inactive) in test [15]; 23.1 µM (inactive) in test [16]; > 100 µM (inactive) in [17]; > 100 µM (inactive) in test [18]. In addition, the GI50 in test [19] and in [20] was > 100 µM (inactive) each time.

On to `CN(C)Cc1cc(/N=N/c2ccccc2Cl)cc(CN(C)C)c1O`, for which the GI50 was > 100 µM (inactive) in [1]; 25.6 µM (inactive) in test [2]; > 100 µM (inactive) in [3]; 48.2 µM (inactive) in test [4]; 58.1 µM (inactive) in test [5]; 77.6 µM (inactive) in [6]. The GI50 in test [7] was > 100 µM (inactive); in test [8], > 100 µM (inactive); in test [9], 12.3 µM (inactive); in test [10] it was 46.9 µM (inactive); in test [11] it was 31.6 µM (inactive); in test [12], 44.7 µM (inactive). In addition, the GI50 in test [13] was > 100 µM (inactive); in [14], 18.2 µM (inactive); in test [15], > 100 µM (inactive); in test [16], > 100 µM (inactive); in test [17] it was 45.2 µM (inactive); in test [18] it was 90.2 µM (inactive). Further, the GI50 was > 100 µM (inactive) in [19] and 23.3 µM (inactive) in [20].

`CC(=O)NNc1nc(C)c(C(/C=C/c2ccc([N+](=O)[O-])cc2)=N/NC(N)=S)s1`: the GI50 in test [1], in test [2], in test [3], in test [4], in test [5] and in test [6] was > 100 µM (inactive) throughout. For the same compound, the GI50 in test [7], in [8], in test [9], in [10], in [11] and in test [12] was > 100 µM (inactive) throughout. For the same compound, the GI50 in [13], in [14], in [15], in test [16], in test [17] and in test [18] was > 100 µM (inactive) each time. Further, the GI50 in test [19] and in test [20] was > 100 µM (inactive) in each case.

As to `N#CC1=C(N2CCCC2)NC(=O)CC1=O`, the GI50 in [1], in [2], in test [3], in [4], in test [5] and in test [6] was > 100 µM (inactive) in each case. Moreover, the GI50 in [7], in test [8], in test [9], in test [10], in test [11] and in [12] was > 100 µM (inactive) in each case. The GI50 in test [13], in test [14], in [15], in test [16], in [17] and in [18] was > 100 µM (inactive) each time. For the same compound, the figures for the GI50 in test [19] and in test [20] were 74 µM (inactive) and > 100 µM (inactive), respectively.

`O=[N+]([O-])c1ccc(/N=N/N2CCCC2)cc1`: the GI50 in test [1] is > 100 µM (inactive); in test [2] it was > 100 µM (inactive); in test [3], > 100 µM (inactive); in test [4], 4.38 µM (inactive); in test [5], > 100 µM (inactive); in test [6] it was > 100 µM (inactive). For the same compound, the GI50 in test [7], in [8], in test [9], in test [10], in test [11] and in [12] was > 100 µM (inactive) in each case. Besides, the GI50 in test [13] was > 100 µM (inactive); in test [14], > 100 µM (inactive); in test [15] it was > 100 µM (inactive); in [16], > 100 µM (inactive); in test [17] it was 79.4 µM (inactive); in test [18], > 100 µM (inactive). Moreover, the GI50 in [19] and in test [20] was > 100 µM (inactive) each time.

Regarding `O=C(/C=C/c1ccc(O)c(O)c1)OCCOC(=O)/C=C/c1ccc(O)c(O)c1`, the GI50 in [1] was 39.4 µM (inactive); in test [2], 33.1 µM (inactive); in [3] it was 26.7 µM (inactive); in test [4] it was 31.8 µM (inactive); in test [5], 35 µM (inactive); in [6], 17.6 µM (inactive). In addition, the GI50 was 30.1 µM (inactive) in [7]; 29.4 µM (inactive) in test [8]; 20 µM (inactive) in [9]; 14.2 µM (inactive) in test [10]; 22.6 µM (inactive) in [11]; 21.5 µM (inactive) in [12]. Moreover, the GI50 was 22.4 µM (inactive) in test [13]; 18.2 µM (inactive) in test [14]; 25.9 µM (inactive) in test [15]; 40.3 µM (inactive) in test [16]; 22.6 µM (inactive) in [17]; 38.1 µM (inactive) in test [18]. For the same compound, the GI50 in test [19] was 24.7 µM (inactive); in test [20], 23.2 µM (inactive).

Take `C/C=C/[C@H]1O[C@@](OC)([C@@H](C)[C@H](O)[C@H](C)[C@H]2OC(=O)/C(OC)=C/C(C)=C/[C@@H](C)[C@@H](O)[C@@H](C)[C@@H](O)[C@H](C)C/C(C)=C/C=C/[C@@H]2OC)CC(OC2CC(O)C(OC(N)=O)C(C)O2)[C@@H]1C` (stereo not given in full): the GI50 in test [1], in test [2], in test [3], in [4], in test [5] and in test [6] was < 0.01 µM (active) in each case. The GI50 in test [7] is < 0.01 µM (active); in test [8], 1.99 µM (inactive); in test [9], < 0.01 µM (active); in [10], 1.82 µM (inactive); in test [11], 2.39 µM (inactive); in test [12] it was < 0.01 µM (active). The GI50 in [13] was < 0.01 µM (active); in test [14], < 0.01 µM (active); in test [15], 0.589 µM (active); in test [16], 2.9 µM (inactive); in [17] it was < 0.01 µM (active); in [18], < 0.01 µM (active). Besides, the GI50 in test [19] and in test [20] was < 0.01 µM (active) each time.
